# According to patent US10670605B2, “Cysteine reactive probes and uses thereof” (The Scripps Research Institute, priority 2015, dated 2020):
# Tests used:
# Experiment in all cases: Competitive isoTOP-ABPP in situ (fragment-treated cells)
# Type in all cases: cell-based
# [1] = target: cysteines in MDA-MB-231 and Ramos cells (Homo sapiens, UniProt O60610)
# [2] = target: T1, cysteines in MDA-MB-231 and Ramos cells (Homo sapiens, UniProt P52597)
# T1 sequence (P52597 1-415): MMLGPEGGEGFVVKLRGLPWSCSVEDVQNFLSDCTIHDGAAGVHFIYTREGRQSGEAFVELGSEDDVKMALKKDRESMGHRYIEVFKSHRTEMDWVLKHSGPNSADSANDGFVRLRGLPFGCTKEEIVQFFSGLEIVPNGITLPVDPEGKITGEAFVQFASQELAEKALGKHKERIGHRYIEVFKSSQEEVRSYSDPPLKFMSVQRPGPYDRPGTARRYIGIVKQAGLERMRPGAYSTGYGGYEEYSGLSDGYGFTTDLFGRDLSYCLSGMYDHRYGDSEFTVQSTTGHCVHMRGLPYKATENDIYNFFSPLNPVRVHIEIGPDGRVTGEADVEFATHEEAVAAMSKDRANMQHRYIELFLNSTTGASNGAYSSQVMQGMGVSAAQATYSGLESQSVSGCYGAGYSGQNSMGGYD
# [3] = target: T2, cysteines in MDA-MB-231 and Ramos cells (Homo sapiens, UniProt P57764)
# T2 sequence (P57764 1-484): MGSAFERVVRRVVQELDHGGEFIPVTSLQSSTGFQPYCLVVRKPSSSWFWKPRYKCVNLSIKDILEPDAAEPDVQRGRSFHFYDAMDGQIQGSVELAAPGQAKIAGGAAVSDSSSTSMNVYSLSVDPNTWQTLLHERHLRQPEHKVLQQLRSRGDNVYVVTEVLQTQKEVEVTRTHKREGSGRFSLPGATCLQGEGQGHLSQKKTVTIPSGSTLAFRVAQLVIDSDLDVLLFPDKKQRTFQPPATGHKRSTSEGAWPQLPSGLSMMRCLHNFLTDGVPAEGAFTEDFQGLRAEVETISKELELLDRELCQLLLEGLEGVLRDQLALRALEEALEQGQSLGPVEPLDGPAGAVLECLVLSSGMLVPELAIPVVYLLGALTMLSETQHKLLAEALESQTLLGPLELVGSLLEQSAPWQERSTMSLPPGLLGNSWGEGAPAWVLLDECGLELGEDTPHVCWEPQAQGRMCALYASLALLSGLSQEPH
# [4] = target: cysteines in MDA-MB-231 and Ramos cells (Homo sapiens, UniProt Q14997); settings: 200 μM, insitu
# Chain of cysteines in MDA-MB-231 and Ramos cells (Homo sapiens, UniProt Q14997) (Q14997 whole entry): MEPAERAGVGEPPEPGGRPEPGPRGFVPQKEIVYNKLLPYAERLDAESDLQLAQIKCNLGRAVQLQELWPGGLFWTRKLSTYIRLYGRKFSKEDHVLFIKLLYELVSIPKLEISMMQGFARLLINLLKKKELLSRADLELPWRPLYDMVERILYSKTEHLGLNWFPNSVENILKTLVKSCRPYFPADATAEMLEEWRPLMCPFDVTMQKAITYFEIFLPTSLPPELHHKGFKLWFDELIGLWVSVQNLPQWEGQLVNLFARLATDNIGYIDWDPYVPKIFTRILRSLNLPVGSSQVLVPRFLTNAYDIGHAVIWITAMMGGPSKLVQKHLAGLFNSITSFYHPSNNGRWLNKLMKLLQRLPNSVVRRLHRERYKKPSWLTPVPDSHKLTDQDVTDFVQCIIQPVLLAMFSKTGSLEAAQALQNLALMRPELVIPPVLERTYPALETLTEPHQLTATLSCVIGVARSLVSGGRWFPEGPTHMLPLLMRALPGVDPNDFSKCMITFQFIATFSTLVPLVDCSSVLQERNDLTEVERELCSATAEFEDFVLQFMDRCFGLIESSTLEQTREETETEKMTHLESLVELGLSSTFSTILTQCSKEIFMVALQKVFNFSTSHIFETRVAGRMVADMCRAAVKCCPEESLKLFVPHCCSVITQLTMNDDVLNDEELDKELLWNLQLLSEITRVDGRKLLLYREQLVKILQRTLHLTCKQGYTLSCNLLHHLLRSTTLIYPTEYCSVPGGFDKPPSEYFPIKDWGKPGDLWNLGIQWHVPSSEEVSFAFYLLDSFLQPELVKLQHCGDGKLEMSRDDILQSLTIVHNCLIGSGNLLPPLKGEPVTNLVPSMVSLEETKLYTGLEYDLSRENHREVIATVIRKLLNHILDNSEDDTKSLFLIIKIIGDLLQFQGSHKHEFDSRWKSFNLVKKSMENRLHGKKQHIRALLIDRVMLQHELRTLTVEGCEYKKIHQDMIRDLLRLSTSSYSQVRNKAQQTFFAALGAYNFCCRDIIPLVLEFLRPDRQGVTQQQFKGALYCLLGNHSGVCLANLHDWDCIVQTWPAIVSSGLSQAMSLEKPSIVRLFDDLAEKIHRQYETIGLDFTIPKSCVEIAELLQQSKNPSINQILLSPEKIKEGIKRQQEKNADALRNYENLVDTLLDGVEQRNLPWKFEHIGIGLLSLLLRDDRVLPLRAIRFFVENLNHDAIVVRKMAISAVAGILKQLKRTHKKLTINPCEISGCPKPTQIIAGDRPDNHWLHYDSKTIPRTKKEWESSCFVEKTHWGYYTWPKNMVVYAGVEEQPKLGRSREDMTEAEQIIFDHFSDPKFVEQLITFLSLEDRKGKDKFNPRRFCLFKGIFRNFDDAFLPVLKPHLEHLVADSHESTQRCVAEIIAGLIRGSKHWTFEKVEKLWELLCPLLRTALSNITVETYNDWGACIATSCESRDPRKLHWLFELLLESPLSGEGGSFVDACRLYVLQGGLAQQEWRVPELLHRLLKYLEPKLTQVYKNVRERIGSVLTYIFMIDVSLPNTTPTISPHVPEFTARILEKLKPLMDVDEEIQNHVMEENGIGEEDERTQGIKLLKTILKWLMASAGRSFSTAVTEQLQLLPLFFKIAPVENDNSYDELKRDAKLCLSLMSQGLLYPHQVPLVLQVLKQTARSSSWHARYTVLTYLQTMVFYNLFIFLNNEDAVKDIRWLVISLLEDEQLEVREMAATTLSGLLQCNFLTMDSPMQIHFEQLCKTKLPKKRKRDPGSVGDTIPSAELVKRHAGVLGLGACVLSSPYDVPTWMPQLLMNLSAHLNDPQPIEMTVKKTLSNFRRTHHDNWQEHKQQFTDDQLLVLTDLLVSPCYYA
# [5] = target: T3, cysteines in MDA-MB-231 and Ramos cells (Homo sapiens, UniProt Q15084)
# T3 sequence (Q15084 20-440): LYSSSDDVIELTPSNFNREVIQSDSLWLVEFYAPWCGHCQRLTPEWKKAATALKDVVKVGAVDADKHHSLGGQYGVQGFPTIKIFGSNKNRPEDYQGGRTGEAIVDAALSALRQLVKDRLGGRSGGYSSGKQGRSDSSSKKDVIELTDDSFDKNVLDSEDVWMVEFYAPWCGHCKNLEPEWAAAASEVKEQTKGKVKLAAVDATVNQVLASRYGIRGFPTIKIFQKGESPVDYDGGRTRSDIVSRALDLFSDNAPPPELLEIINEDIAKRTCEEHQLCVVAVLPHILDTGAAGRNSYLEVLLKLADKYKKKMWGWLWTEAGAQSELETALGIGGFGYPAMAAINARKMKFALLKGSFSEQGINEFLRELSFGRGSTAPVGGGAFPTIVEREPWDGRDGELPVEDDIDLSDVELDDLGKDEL
# [6] = target: T4, cysteines in MDA-MB-231 and Ramos cells (Homo sapiens, UniProt Q99757)
# T4 sequence (Q99757 60-166): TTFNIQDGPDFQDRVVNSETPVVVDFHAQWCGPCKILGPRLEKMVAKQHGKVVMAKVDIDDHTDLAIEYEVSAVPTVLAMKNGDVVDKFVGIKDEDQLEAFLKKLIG
# [7] = target: T5, cysteines in MDA-MB-231 and Ramos cells (Homo sapiens, UniProt Q9Y277)
# T5 sequence (Q9Y277 1-283): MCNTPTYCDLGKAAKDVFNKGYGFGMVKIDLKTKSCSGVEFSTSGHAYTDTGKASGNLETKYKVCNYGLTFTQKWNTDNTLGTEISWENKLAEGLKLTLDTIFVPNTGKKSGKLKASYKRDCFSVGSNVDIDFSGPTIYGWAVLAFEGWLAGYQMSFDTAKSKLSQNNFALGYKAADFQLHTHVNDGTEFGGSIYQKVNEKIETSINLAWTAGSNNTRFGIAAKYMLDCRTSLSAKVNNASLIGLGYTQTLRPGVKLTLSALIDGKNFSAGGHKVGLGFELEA
# [8] = target: cysteines in MDA-MB-231 and Ramos cells (Homo sapiens, UniProt Q9Y696)
# Chain of cysteines in MDA-MB-231 and Ramos cells (Homo sapiens, UniProt Q9Y696) (Q9Y696 whole entry): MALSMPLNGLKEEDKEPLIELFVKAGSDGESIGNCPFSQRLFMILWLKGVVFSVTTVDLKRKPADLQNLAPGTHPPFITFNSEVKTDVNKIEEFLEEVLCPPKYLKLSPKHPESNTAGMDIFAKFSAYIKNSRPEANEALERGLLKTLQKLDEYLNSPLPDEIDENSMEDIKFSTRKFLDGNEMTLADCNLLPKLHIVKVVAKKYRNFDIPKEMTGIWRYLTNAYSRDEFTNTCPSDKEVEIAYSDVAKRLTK
# [9] = target: T6, cysteines in MDA-MB-231 and Ramos cells (Homo sapiens, UniProt P23919)
# T6 sequence (P23919 1-212): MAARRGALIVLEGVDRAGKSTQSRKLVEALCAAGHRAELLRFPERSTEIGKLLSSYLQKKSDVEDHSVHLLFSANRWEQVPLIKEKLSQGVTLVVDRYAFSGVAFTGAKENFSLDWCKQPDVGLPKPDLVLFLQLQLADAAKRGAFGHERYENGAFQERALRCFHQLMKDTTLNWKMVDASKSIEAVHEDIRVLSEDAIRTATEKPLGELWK
# [10] = target: T7, cysteines in MDA-MB-231 and Ramos cells (Homo sapiens, UniProt Q15233)
# T7 sequence (Q15233 1-471): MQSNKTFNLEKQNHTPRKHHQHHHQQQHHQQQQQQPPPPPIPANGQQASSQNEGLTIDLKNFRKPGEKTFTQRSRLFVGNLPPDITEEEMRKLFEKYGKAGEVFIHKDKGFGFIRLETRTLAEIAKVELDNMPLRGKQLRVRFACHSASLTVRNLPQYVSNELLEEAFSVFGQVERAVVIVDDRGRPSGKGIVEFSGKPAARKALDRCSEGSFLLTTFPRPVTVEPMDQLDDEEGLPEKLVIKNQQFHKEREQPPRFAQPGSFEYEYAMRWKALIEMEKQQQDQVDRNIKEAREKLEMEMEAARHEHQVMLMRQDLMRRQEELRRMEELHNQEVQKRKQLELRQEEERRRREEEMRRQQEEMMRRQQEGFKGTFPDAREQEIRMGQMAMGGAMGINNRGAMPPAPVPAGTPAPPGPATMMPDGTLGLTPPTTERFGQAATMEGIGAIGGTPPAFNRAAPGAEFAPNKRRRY
# Chain of cysteines in MDA-MB-231 and Ramos cells (Homo sapiens, UniProt O60610) (O60610 whole entry): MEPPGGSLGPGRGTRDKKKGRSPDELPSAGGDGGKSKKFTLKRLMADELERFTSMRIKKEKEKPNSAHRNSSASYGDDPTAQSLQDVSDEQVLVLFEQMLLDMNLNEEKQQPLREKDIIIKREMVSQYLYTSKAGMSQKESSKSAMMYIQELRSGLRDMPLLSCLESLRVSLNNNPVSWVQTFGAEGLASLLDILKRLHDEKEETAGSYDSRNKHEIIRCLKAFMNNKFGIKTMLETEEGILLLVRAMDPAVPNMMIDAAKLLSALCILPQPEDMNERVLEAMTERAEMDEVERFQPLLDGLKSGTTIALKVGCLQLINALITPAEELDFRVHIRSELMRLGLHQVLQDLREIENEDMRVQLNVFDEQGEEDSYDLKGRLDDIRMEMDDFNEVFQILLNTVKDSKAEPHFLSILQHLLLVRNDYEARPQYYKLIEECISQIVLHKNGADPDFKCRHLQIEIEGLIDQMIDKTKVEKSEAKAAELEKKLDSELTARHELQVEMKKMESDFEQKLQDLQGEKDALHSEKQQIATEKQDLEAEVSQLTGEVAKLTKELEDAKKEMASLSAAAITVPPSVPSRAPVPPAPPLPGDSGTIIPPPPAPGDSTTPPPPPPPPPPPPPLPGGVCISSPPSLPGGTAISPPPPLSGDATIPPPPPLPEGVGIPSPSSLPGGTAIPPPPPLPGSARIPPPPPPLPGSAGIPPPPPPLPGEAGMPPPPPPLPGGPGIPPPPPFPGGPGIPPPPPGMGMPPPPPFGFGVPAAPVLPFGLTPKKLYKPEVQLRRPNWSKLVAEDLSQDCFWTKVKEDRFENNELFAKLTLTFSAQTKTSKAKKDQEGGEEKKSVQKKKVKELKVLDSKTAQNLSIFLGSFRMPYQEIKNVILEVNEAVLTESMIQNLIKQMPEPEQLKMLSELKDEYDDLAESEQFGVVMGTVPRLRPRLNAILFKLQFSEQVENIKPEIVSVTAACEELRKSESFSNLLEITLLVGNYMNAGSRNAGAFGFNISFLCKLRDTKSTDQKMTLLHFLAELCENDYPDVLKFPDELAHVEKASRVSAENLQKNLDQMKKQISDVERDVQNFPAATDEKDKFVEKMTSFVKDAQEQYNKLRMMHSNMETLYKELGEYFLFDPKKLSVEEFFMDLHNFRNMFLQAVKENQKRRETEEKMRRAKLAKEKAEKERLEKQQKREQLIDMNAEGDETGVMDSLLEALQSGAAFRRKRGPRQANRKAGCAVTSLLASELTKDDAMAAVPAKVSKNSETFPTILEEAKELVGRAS
smiles,measurement,setting,value
COc1ccc2c(c1)CCCN2C(=O)CCl [compound 2],isoTOP-ABPP reactivity O60610_C1227 DIAPH1,"[1]; 200 μM, insitu, 231",2.2
same,isoTOP-ABPP reactivity P52597_C267 HNRNPF,"[2]; 200 μM, insitu, 231",4.2
same,isoTOP-ABPP reactivity P57764_C268 GSDMD,"[3]; 200 μM, insitu, 231",20.0
same,isoTOP-ABPP reactivity Q14997_C1840 PSME4,[4]; 231,2.8
same,isoTOP-ABPP reactivity Q15084_C55 PDIA6,"[5]; 200 μM, insitu, 231",3.0
same,isoTOP-ABPP reactivity Q99757_C90 TXN2,"[6]; 200 μM, insitu, 231",10.1
same,isoTOP-ABPP reactivity Q9Y277_C65 VDAC3,"[7]; 200 μM, insitu, 231",3.3
same,isoTOP-ABPP reactivity Q9Y696_C35 CLIC4,"[8]; 200 μM, insitu, 231",1.7
O=C(CCl)NC(=O)NC12CC3CC(CC(C3)C1)C2 [compound 12],isoTOP-ABPP ratio O60610_C1227,"[1]; 200 μM, insitu, 231",0.8
same,"isoTOP-ABPP ratio, cysteine P23919_C117","[9]; 200 μM, insitu, 231",0.2
same,isoTOP-ABPP ratio P52597_C267,"[2]; 200 μM, insitu, 231",6.8
same,isoTOP-ABPP ratio Q14997_C1840,[4]; 231,20.0
same,isoTOP-ABPP ratio Q15084_C55,"[5]; 200 μM, insitu, 231",15.4
same,"isoTOP-ABPP ratio, Q15084_C190","[5]; 200 μM, insitu, 231",20.0
same,isoTOP-ABPP ratio Q15233_C145,"[10]; 200 μM, insitu, 231",2.4
same,isoTOP-ABPP ratio Q99757_C90,"[6]; 200 μM, insitu, 231",5.0
same,isoTOP-ABPP ratio Q9Y277_C65,"[7]; 200 μM, insitu, 231",3.9
same,isoTOP-ABPP ratio Q9Y696_C35,"[8]; 200 μM, insitu, 231",20.0
Cn1cc(S(=O)(=O)N2CCOCC2)cc1C(=O)NC(=O)CCl [compound 11],isoTOP-ABPP ratio O60610_C1227,[1]; 100 μM in situ 231,0.9
same,"isoTOP-ABPP ratio, cysteine P23919_C163",[9]; 100 μM in situ 231,0.2
same,isoTOP-ABPP ratio P52597_C267,[2]; 100 μM in situ 231,1.0
same,isoTOP-ABPP ratio P57764_C268,[3]; 100 μM in situ 231,0.7
same,isoTOP-ABPP ratio Q15084_C55,[5]; 100 μM in situ 231,4.3
same,isoTOP-ABPP ratio Q15233_C145,[10]; 100 μM in situ 231,1.2
same,isoTOP-ABPP ratio Q99757_C90,[6]; 100 μM in situ 231,2.7
same,isoTOP-ABPP ratio Q9Y277_C65,[7]; 100 μM in situ 231,1.4
same,isoTOP-ABPP ratio Q9Y696_C35,[8]; 100 μM in situ 231,1.9
O=C(CCl)NCCc1c[nH]c2ccccc12 [compound 13],isoTOP-ABPP ratio O60610_C1227,"[1]; 200 μM, insitu, 231",0.7
same,isoTOP-ABPP ratio O60610_C1227,"[1]; 200 μM, insitu, ramos",0.9
same,"isoTOP-ABPP ratio, cysteine P23919_C117","[9]; 200 μM, insitu, 231",0.6
same,isoTOP-ABPP ratio P52597_C267,"[2]; 200 μM, insitu, 231",1.2
same,isoTOP-ABPP ratio P52597_C267,"[2]; 200 μM, insitu, ramos",1.3
same,isoTOP-ABPP ratio P57764_C268,"[3]; 200 μM, insitu, ramos",1.5
same,isoTOP-ABPP ratio Q14997_C1840,[4]; 231,0.9
same,isoTOP-ABPP ratio Q14997_C1840,[4]; ramos,1.6
same,isoTOP-ABPP ratio Q15084_C55,"[5]; 200 μM, insitu, ramos",1.5
same,isoTOP-ABPP ratio Q15233_C145,"[10]; 200 μM, insitu, 231",1.0
same,isoTOP-ABPP ratio Q15233_C145,"[10]; 200 μM, insitu, ramos",1.1
same,isoTOP-ABPP ratio Q9Y277_C65,"[7]; 200 μM, insitu, 231",1.0
same,isoTOP-ABPP ratio Q9Y696_C35,"[8]; 200 μM, insitu, 231",2.3
same,isoTOP-ABPP ratio Q9Y696_C35,"[8]; 200 μM, insitu, ramos",3.2
O=C(CCl)N1CCN(CC(=O)N2CCOCC2)CC1 [compound 29],isoTOP-ABPP ratio O60610_C1227,"[1]; 200 μM, insitu, ramos",1.6
same,isoTOP-ABPP ratio P23919_C117,"[9]; 200 μM, insitu, ramos",1.6
same,isoTOP-ABPP ratio P52597_C267,"[2]; 200 μM, insitu, ramos",1.2
same,isoTOP-ABPP ratio P57764_C268,"[3]; 200 μM, insitu, ramos",1.1
same,isoTOP-ABPP ratio Q15084_C55,"[5]; 200 μM, insitu, ramos",1.0
same,"isoTOP-ABPP ratio, Q15084_C190","[5]; 200 μM, insitu, ramos",1.0
same,isoTOP-ABPP ratio Q99757_C90,"[6]; 200 μM, insitu, ramos",1.6
same,isoTOP-ABPP ratio Q9Y696_C35,"[8]; 200 μM, insitu, ramos",1.0
O=C(CCl)NC12CC3CC(CC(C3)C1)C2 [compound 21],isoTOP-ABPP ratio O60610_C1227,"[1]; 200 μM, insitu, 231",20.0
same,"isoTOP-ABPP ratio, cysteine P23919_C117","[9]; 200 μM, insitu, 231",0.9
same,isoTOP-ABPP ratio P52597_C267,"[2]; 200 μM, insitu, 231",1.5
same,isoTOP-ABPP ratio P57764_C268,"[3]; 200 μM, insitu, 231",0.7
same,isoTOP-ABPP ratio Q14997_C1840,[4]; 231,1.0
same,isoTOP-ABPP ratio Q15084_C55,"[5]; 200 μM, insitu, 231",0.9
same,isoTOP-ABPP ratio Q99757_C90,"[6]; 200 μM, insitu, 231",4.3
same,isoTOP-ABPP ratio Q9Y277_C65,"[7]; 200 μM, insitu, 231",2.9
same,isoTOP-ABPP ratio Q9Y696_C35,"[8]; 200 μM, insitu, 231",1.1
O=C(CCl)N1CCC(Cc2ccccc2)CC1 [compound 9],isoTOP-ABPP reactivity O60610_C1227 DIAPH1,"[1]; 200 μM, insitu, 231",1.5
same,isoTOP-ABPP reactivity P23919_C117 DTYMK,"[9]; 200 μM, insitu, 231",7.3
same,isoTOP-ABPP reactivity P52597_C267 HNRNPF,"[2]; 200 μM, insitu, 231",3.2
same,isoTOP-ABPP reactivity Q15084_C55 PDIA6,"[5]; 200 μM, insitu, 231",2.1
same,isoTOP-ABPP reactivity Q15233_C145 NONO,"[10]; 200 μM, insitu, 231",1.4
same,isoTOP-ABPP reactivity Q99757_C90 TXN2,"[6]; 200 μM, insitu, 231",20.0
same,isoTOP-ABPP reactivity Q9Y696_C35 CLIC4,"[8]; 200 μM, insitu, 231",2.6
